Data set [1] has as its target T1, human cloned 5-HT6 receptors (Homo sapiens, UniProt P50406).
T1 construct: expressed in transfected cells; host or cells: Hela cells (membrane preparation)
Briefly: 5-HT6 binding affinity, [3H]-LSD displacement on membranes of Hela cells expressing the cloned receptor. The settings on record: for inhibition at 1 µM: read-out: % Inhibition at 1 μM.

The mark [2] stands for this setting: [3H]-LSD 3.0 nM, Hela cell membranes, 120 min at room temperature, read-out: 5-HT6 Binding Ki.

Like-named read-outs stand apart in the source and are kept apart here.

T1 sequence (P50406 whole entry): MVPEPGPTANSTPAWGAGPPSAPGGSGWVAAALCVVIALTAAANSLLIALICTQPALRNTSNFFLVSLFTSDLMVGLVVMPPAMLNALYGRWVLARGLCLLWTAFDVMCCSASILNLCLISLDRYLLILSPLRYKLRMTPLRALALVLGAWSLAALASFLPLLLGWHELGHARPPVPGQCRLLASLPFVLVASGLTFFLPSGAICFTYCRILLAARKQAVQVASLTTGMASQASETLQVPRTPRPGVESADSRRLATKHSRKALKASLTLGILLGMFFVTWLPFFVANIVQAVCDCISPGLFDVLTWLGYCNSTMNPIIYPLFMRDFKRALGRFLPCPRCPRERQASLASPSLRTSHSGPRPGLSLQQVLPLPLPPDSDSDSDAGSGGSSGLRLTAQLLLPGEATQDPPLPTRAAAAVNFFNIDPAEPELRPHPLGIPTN

Compound `CN(C)CCn1cc(S(=O)(=O)c2ccccc2)c2ccccc21` [Example 3] gave a Ki in data set [1] of 20 nM.

With `NCCCn1cc(S(=O)(=O)c2ccccc2)c2ccccc21` [Example 5, 3-[3-(phenylsulfonyl)-1H-indol-1-yl]propan-1-amine], in data set [1] (setting [2]), the Ki was 92 nM.

`CN(C)CCCCn1cc(S(=O)(=O)c2ccccc2)c2ccccc21` [Example 7] registered a melting point of 184 to 187 °C. In data set [1] (setting [2]), the Ki is 160 nM.

As for `CN(C)CCn1cc(S(=O)(=O)c2ccccc2)c2cc(C#N)ccc21` [Example 8, 1-[2-(dimethylamino)ethyl]-3-(phenylsulfonyl)-1H-indole-5-carbonitrile], the melting point was 280 °C (dec.). In addition, in data set [1] (setting [2]), the Ki is 45 nM.

Compound `CN(C)CCn1cc(S(=O)(=O)c2ccccc2)c2c(F)cccc21` [Example 9, N,N-dimethyl-N-{2-[4-fluoro-3-(phenylsulfonyl)-1H-indol-1-yl]ethyl}amine] came in with a melting point of 201 to 203 °C. In data set [1], this compound showed a Ki of 98 nM.

Take `CN(C)CCn1cc(S(=O)(=O)c2ccccc2)c2cccc(Cl)c21` [Example 10, N,N-dimethyl-N-{2-[7-chloro-3-(phenylsulfonyl)-1H-indol-1-yl]-ethyl}amine]: the melting point lay in the range of 240 to 242 °C. Besides, in data set [1] (setting [2]), the Ki came to 98 nM.

Consider `CN(C)CCn1cc(S(=O)(=O)c2ccccc2)c2c(Cl)cccc21` [Example 11, N,N-dimethyl-N-{2-[4-chloro-3-(phenylsulfonyl)-1H-indol-1-yl]-ethyl}amine], for which the melting point lay in the range of 209 to 211 °C. In addition, the Ki in data set [1] (setting [2]) stood at 134 nM.

`Cc1cccc2c1c(S(=O)(=O)c1ccccc1)cn2CCN(C)C` [Example 12, N,N-dimethyl-N-{2-[4-methyl-3-(phenylsulfonyl)-1H-indol-1-yl]ethyl}amine] had a melting point of 220 to 221 °C. Further, the Ki in data set [1] (setting [2]) amounted to 183 nM.

As to `CCc1cccc2c(S(=O)(=O)c3ccccc3)cn(CCN(C)C)c12` [Example 13, N,N-dimethyl-N-{2-[7-ethyl-3-(phenylsulfonyl)-1H-indol-1-yl]ethyl}amine], the melting point was in the range of 213 to 216 °C. Moreover, affinity in data set [1] was put at a Ki of 65 nM.

On to `CN(C)CCn1cc(S(=O)(=O)c2ccccc2)c2cccc(C#N)c21` [Example 14, 1-[2-(dimethylamino)ethyl]-3-(phenylsulfonyl)-1H-indole-7-carbonitrile], for which the melting point was 134 to 136 °C. Moreover, the inhibition constant Ki in data set [1] (setting [2]) is 755 nM. In data set [1], the inhibition at 1 µM amounted to 35%.

On to `CN(C)CCCn1cc(S(=O)(=O)c2ccccc2)c2ccccc21` [Example 15, N,N-dimethyl-3-[3-(phenylsulfonyl)-1H-indol-1-yl]propan-1-amine], for which the melting point fell in the range of 207 to 209 °C. Further, the Ki in data set [1] (setting [2]) came to 169 nM.

As to `COc1ccc2c(c1)c(S(=O)(=O)c1ccccc1)cn2CCN(C)C` [Example 20], the melting point lay within 214 to 216 °C. Further, in data set [1], the Ki came to 23 nM and the inhibition at 1 µM is 88%.

On to `COc1ccc2c(c1)c(S(=O)(=O)c1ccccc1)cn2CCN` [Example 21, 2-[5-methoxy-3-(phenylsulfonyl)-1H-indol-1-yl]ethylamine], for which the melting point was in the range of 198 to 201 °C. In addition, the inhibition at 1 µM in data set [1] (1 μM test compound, displacement of [3H]-LSD) stood at 86%.

Take `COc1cccc2c(S(=O)(=O)c3ccccc3)cn(CCN(C)C)c12` [Example 23]: the melting point lay within 236 to 238 °C. The compound further yielded an inhibition constant Ki in data set [1] of 25 nM.

Compound `Cc1c(S(=O)(=O)c2ccccc2)c2ccccc2n1CCN(C)C` [Example 24, N,N-dimethyl-N-{2-[2-methyl-3-(phenylsulfonyl)-1H-indol-1-yl]ethyl}amine] displayed a melting point of 258 to 260 °C. The affinity in data set [1], expressed as Ki, was 18 nM.

The compound `CN(C)CCn1cc(S(=O)(=O)c2cccc(F)c2)c2ccccc21` [Example 25] displayed a melting point of 210 to 211 °C. Further, the Ki in data set [1] (setting [2]) worked out at 13 nM.

The compound `CN(C)CCn1cc(S(=O)(=O)c2cccc3ccccc23)c2ccccc21` [Example 26] registered a melting point of 239 to 241 °C. For the same compound, the Ki in data set [1] (setting [2]) is 4 nM.

For `CN(C)CCn1cc(S(=O)(=O)c2ccccc2)c2ccc(-c3ccccc3)cc21` [Example 27], the Ki in data set [1] (setting [2]) was 23 nM.

In the case of `CN(C)CCn1cc(S(=O)(=O)Cc2ccccc2)c2ccccc21` [Example 31], the melting point is 219 to 220 °C. Besides, in data set [1] (setting [2]), the Ki was determined as 1010 nM.

`O=S(=O)(Cc1ccccc1)c1cn(CCN2CCCCC2)c2ccccc12` [Example 32]: the melting point is 223 to 225 °C. Besides, the Ki in data set [1] (setting [2]) is 644 nM.

As for `CN(C)CCn1nc(S(=O)(=O)c2ccccc2)c2ccccc21` [Example 35], the Ki in data set [1] (setting [2]) is 74 nM.

Turning to `NCCn1nc(S(=O)(=O)c2ccccc2)c2ccccc21` [Example 36, 2-[3-(phenylsulfonyl)-1H-indazol-1-yl]ethylamine], the melting point fell in the range of 208 to 209 °C. Besides, the Ki in data set [1] (setting [2]) came to 44 nM.

With `CN(C)CCn1nc(S(=O)(=O)c2cccc(F)c2)c2ccccc21` [Example 37], the melting point lay within 192 to 194 °C. The Ki in data set [1] (setting [2]) was 55 nM.

Turning to `COc1ccc2c(c1)c(S(=O)(=O)c1ccccc1)cn2CCNCc1ccccc1` [Example 39], in data set [1] (setting [2]), the Ki amounted to 59 nM.

In turn, `NCCn1cc(S(=O)(=O)c2ccccc2)c2ccccc21` [Example 40, 2-[3-(phenylsulfonyl)-1H-indol-1-yl]ethylamine] displayed a melting point of 220 to 221 °C. Besides, the Ki in data set [1] (setting [2]) is 25 nM.

In turn, `NCCn1cc(S(=O)(=O)c2ccccc2)c2ccc(Cl)cc21` [Example 44, 2-[6-chloro-3-(phenylsulfonyl)-1H-indol-1-yl]ethylamine] showed a melting point of 200 to 206 °C. For the same compound, the Ki in data set [1] (setting [2]) is 141 nM.

In the case of `Cc1ccc(S(=O)(=O)c2cn(CCN)c3ccccc23)cc1` [Example 45], the melting point lay in the range of 178 to 183 °C. In addition, the Ki in data set [1] (setting [2]) came to 25 nM.

`Cn1ccnc1S(=O)(=O)c1cn(CCN)c2ccccc12` [Example 46] yielded a melting point of 158 to 160 °C. Also, the Ki in data set [1] (setting [2]) was 573 nM.

`CN(C)CCn1cc(S(=O)(=O)c2ccccc2)c2cc(F)ccc21` [Example 47]: the melting point is 103 to 104 °C. This compound also yielded a Ki in data set [1] of 44 nM.

On to `COc1ccc2c(S(=O)(=O)c3ccccc3)cn(CCN(C)C)c2c1` [Example 48], for which the melting point lay within 121 to 122 °C. The compound further yielded a Ki in data set [1] of 23 nM.

Regarding `Cc1ccc2c(S(=O)(=O)c3ccccc3)cn(CCN(C)C)c2c1` [Example 49], the melting point lay within 131 to 132 °C. In addition, the inhibition constant (Ki) in data set [1] (setting [2]) is 51 nM.

The compound `CN(C)CCn1cc(S(=O)(=O)c2ccccc2)c2ccc(F)cc21` [Example 50] came in with a melting point of 100 to 102 °C. The compound further showed a Ki in data set [1] of 46 nM.

Compound `CN(C)CCn1cc(S(=O)(=O)c2ccccc2)c2ccc(Cl)cc21` [Example 51] had a melting point of 104 to 106 °C. The compound also displayed a Ki in data set [1] of 42 nM.

Consider `Cc1ccc(S(=O)(=O)c2cn(CCN(C)C)c3ccccc23)cc1` [Example 52], for which the melting point is over 250 °C. Moreover, the Ki in data set [1] turned out to be 57 nM.

In turn, `COc1cccc2c1c(S(=O)(=O)c1ccccc1)cn2CCN(C)C` [Example 53] showed a melting point of 238 to 240 °C. In data set [1] (setting [2]), the inhibitory constant (Ki) was determined as 152 nM.

In the case of `CN(C)CCn1cc(S(=O)(=O)c2ccccc2OC(F)(F)F)c2ccccc21` [Example 57], the Ki in data set [1] (setting [2]) came to 16 nM.

Compound `CN(C)CCn1cc(S(=O)(=O)c2c(Cl)nc3sccn23)c2ccccc21` [Example 58] returned a melting point of 138 to 140 °C. The Ki in data set [1] (setting [2]) is 6 nM.

By Ki is commonly meant the equilibrium dissociation constant of an inhibitor or competing ligand from its target. By melting point is commonly meant the temperature, or range, at which the solid turns liquid. What is called inhibition is the drop in the measured response relative to a control, in per cent.

The record behind these values is patent publication US6727246B2, “1-(aminoalkyl)-3-sulfonylindole-and-indazole derivatives as 5-hydroxytryptamine-6 ligands” (Wyeth, priority 2002, dated 2004).
